Results as given in US20120322890A1, “Inhibition of the Survival of Bone Cancer by Cyclohexenone Compounds from Antrodia Camphorata” (Golden Biotechnology Corporation, priority 2009, published 2012).

System: bone cancer cell line MG-63
Experiment: In vitro survival assay (MTT) for inhibition of bone cancer cells
Format: cell-based
Settings: Homo sapiens, MG-63 cells, 48 hours treatment, absorbance at 570 nm, read-out: IC50 (half inhibition concentration), survival of bone cancer cells
Protocol: Inhibiting effects of bone cancer cells by cyclohexenone compounds of Antrodia camphorata from example 1 were assessed according to the anticancer-drug screening model of National Cancer Institute (NCI). The compound 4-hydroxy-2,3-dimethoxy-6-methyl-5-(3,7,11-trimethyl-dodeca-2,6,10-trienyl)-cyclohex-2-enone from example 1 was added into the culture media of bone cancer cell line MG-63 to determine the survival rates. Survival of cell was analyzed using MTT assay. MG-63 cell line was an osteoblast-like fibroblast cell line and derived from human osteosarcoma, which had similar cell type and feature with osteoblast.
MTT assay is commonly used to analyze cell proliferation, survival rate of viable cells and cytotoxicity. MTT (3[4,5-dimethylthiazol-2-yl]-2,5-diphenyltetrazolium bromide) is a yellow dye which can be converted to water-insoluble purple formazan on the reductive cleavage of its tetrazolium ring by the succinate tetrazolium reductase in mitochondria of cells. The amount of formazan produced is used to detect the number of viable cells and calculate the survival rates.
The MG-63 cells were cultivated in Dulbecco's modified Eagle's medium (DMEM) supplemented with 10% fetal bovine serum, 100 IU/ml of Penicillin and […] of Streptomycin at 37° C., 5% CO2 for 24 hours. […] The absorbances were measured at 570 nm with an ELISA Reader to determine the survival rates.

## COC1=C(OC)C(O)C(C/C=C(\C)CC/C=C(\C)CCC=C(C)C)C(C)C1=O (stereo not shown) [formula 2, 4-hydroxy-2,3-dimethoxy-6-methyl-5-(3,7,11-trimethyl-dodeca-2,6,10-trienyl)-cyclohex-2-enone]
  IC50: 2.09 µg/mL
